Patent US5273991A, “Imidazole-containing compositions and methods of use thereof analogs of distamycin” (Research Corporation Technologies, Inc., priority 1992, dated 1993)

How the values were obtained:
calf thymus DNA = assay: circular dichroism (CD) titration, calf thymus DNA; format: binding; details: for isobestic point: calf thymus DNA; for binding site size: from saturation point r'~0.25; for saturation point r': moles of drug to moles of DNA base pairs
Description: The DNA binding properties of the present compounds were assessed by circular dichroism (CD) titration experiments. Methods for CD titration can be found, for example, in Zimmer et al. (1986) Prog. Biophys. Molec. Biol 47, 31. The conformation of DNA can be readily determined by CD experiments, and for B-DNA, characteristic positive and negative Cotton effects are observed at 260 and 245 nm, respectively.
The interaction of Compounds 6-10 to a number of DNAs [calf thymus, poly(dA dT) and poly(dG dC)] were analyzed by CD titration studies. All the CD titration experiments were performed using identical procedures, concentrations of DNA, and increments of drug:DNA ratios (or `r`, i.e. moles of drug to moles of DNA base pairs). Therefore, the differences observed in the CD spectra for the titration of each of the compounds to the polydeoxynucleotides may be directly compared to reflect their DNA binding properties.
All experiments were performed with a continuous flow of nitrogen purging the polarimeter. A 1 mm path length jacketed cell was used and all experiments were done at room temperature. Initially, DNA [0.02 μ moles (base pairs), 130 μL] was placed in the cell and the spectrum of the DNA alone was collected. Aliquots of drug were added and the spectra collected. The drug solutions were 1 mM and amounts of the drug added correspond to a drug to base pair ratio of 0.05, 0.10, 0.15, 0.20, 0.25, 0.30, 0.40, 0.50, 0.60, 0.80, 1.00. The scan parameters were set and standard for all experiments. The spectra were collected from 400 nm to 200 nm. The sensitivity was set at 1 mdeg and the scan speed was set at 20 nm per minute. Three scans were accumulated and automatically averaged by the computer. The λmax and ellipticity (mdeg) for each spectrum were collected from the raw scans and the final plots were smoothed by the noise reduction program on the computer. […] The induced CD band is presumably due to the uv absorption π to π^* transition of the drug in the drug:DNA complex. […] Therefore interaction of these drugs with DNA causes only minor conformational changes in the double helix.

1GROV1 = assay: NCI cytotoxicity screen (SRB); format: cell-based, human
HOP-18 = assay: NCI cytotoxicity screen (SRB); format: cell-based, human; details: subsequent test date
OVCAR-8 = assay: NCI cytotoxicity screen (SRB); format: cell-based, human
UACC-257 = assay: NCI cytotoxicity screen (SRB); format: cell-based, human
UACC-62 = assay: NCI cytotoxicity screen (SRB); format: cell-based, human
CCRF-DEM = assay: NCI cytotoxicity screen (SRB); format: cell-based, human; details: 48 h; Leukemia CCRF-DEM

Which results are given for CN(C)CCNC(=O)c1nc(NC(=O)c2nc(NC(=O)c3ccc(N(CCCl)CCCl)cc3)cn2C)cn1C [Compound 6, N-(N',N'-dimethylaminoethyl)-1-methyl-4-{4-[4,4-bis(2-chloroethyl)aminobenzamido]-1-methylimidazole-2-carboxamido}imidazole-2-carboxamide]?
negative CD band, ellipticity (calf thymus DNA; 310 nm, r'=0.2, low drug concentration): 0.2 mdeg; negative CD band, ellipticity (calf thymus DNA; 315 nm, r'>0.4, higher drug concentrations): ~ 3 mdeg; weak positive CD band, ellipticity (calf thymus DNA; 340 nm, r'=0.2, low drug concentration): 0.8 mdeg; isobestic point (calf thymus DNA): 320 nm; binding site size (calf thymus DNA): about four; saturation point r' (calf thymus DNA): ~ 0.25; positive CD band at 340 nm, in words (calf thymus DNA; r'>0.4, higher drug concentrations): disappeared; IC50 (1GROV1; 1GROV1, subsequent test date): 59.6 µM; IC50 (1GROV1; 48 h, Ovarian Cancer 1GROV1): 50 µM; IC50 (HOP-18): 10.2 µM; IC50 (OVCAR-8; 48 h, Ovarian Cancer OVCAR-8): 45.3 µM; IC50 (OVCAR-8; OVCAR-8, subsequent test date): 20.8 µM; IC50 (UACC-257; 48 h, Melanoma UACC-257): 7.03 µM; IC50 (UACC-257; UACC-257, subsequent test date): 57.6 µM; IC50 (UACC-62; 48 h, Melanoma UACC-62): 7.61 µM; IC50 (UACC-62; UACC-62, subsequent test date): 59.7 µM

With CN(C)CCNC(=O)c1nc(NC(=O)c2nc(NC(=O)c3nc(NC(=O)c4ccc(N(CCCl)CCCl)cc4)cn3C)cn2C)cn1C [Compound 7, N-(N',N'-dimethylaminoethyl)-1-methyl-4-{1-methyl-4-[4-(4,4-bis-(2-chloroethyl)aminobenzamido)-1-methylimidazole-2-carboxamido]imidazole-2-carboxamido}imidazole-2-carboxamide] as the molecule, how does the “weak negative CD band, ellipticity” value (calf thymus DNA; 335 nm, r'=0.2) read?
The value was 0.5 mdeg.

And the isobestic point (calf thymus DNA)?
Its isobestic point is 300 nm.

What about the binding site size (calf thymus DNA) of the same molecule?
Its binding site size is “four”.

What about the “saturation point r'” value (calf thymus DNA) of the same molecule?
The value was ~ 0.25.

CN(C)CCNC(=O)c1nc(NC(=O)c2nc(NC(=O)c3nc(NC(=O)CCCc4ccc(N(CCCl)CCCl)cc4)cn3C)cn2C)cn1C [Compound 10, N-(N',N'-dimethylaminoethyl)-1-methyl-4-{1-methyl-4-[4-(4,4-bis(2-chloroethyl)aminophenyl-1-butanamido)-1-methylimidazole-2-carboxamido]imidazole-2-carboxamido}imidazole-2-carboxamide] was tested. Which IC50 (CCRF-DEM) did it give?
Its IC50 is 9.67 µM.
